Measurements reported in patent US20240252689A1, “POLY-ADP RIBOSE (PAR) TRACKER OPTIMIZED SPLIT-PROTEIN REASSEMBLY PAR DETECTION REAGENTS” (THE BOARD OF REGENTS OF THE UNIVERSITY OF TEXAS SYSTEM, priority 2021, published 2024).

Experiments:
PARP-1 activation = experiment: Live-cell luminescence assay with PAR-T NanoLuc, UV-induced PARP-1 activation in MDA-MB-231-Luc cells; type: cell-based, human; details: for time-dependent, UV-mediated increase in PAR-T NanoLuc signal (PARP-1 activation): time course after UV radiation, 20 μM for 2 hr prior to UV
Procedure: Each point in the graph represents the mean±SEM of the relative levels of luminescence from PAR-T NanoLuc normalized to full Nano luciferase (n=3).
FIG. 11B provides quantitative analysis of Western blot analysis and bioluminescence imaging (shown in FIG. 4B) of 231-PAR-T NanoLuc cells treated with 20 μM Niraparib or 20 μM PARG inhibitor for 2 hr prior to UV radiation. Each bar in the graph represents the mean±SEM of the relative intensities (n=3, one-way ANOVA, *p<0.05, **p<0.001, and ***p<0.0001; ns=not significant).
(§1) Cells were treated with various inhibitors as described herein. For inhibition of nuclear PARPs, cells were treated with PJ-34 ([…]; Enzo, ALX-270) or Olaparib (20 µM; MedChem Express, HY-10162) for 2 hours. For inhibition of PARG, cells were treated with PDD 00017273 (20 µM; MedChem Express, HY-108360) for 2 hours. For UV-induced DNA damage, the cells were harvested 15 minutes after treatment with 50 mJ/cm2 UV irradiation.
DNA damaging agents such as UV irradiation and y irradiation activate PARP-1 and cause PARylation of itself and other DNA damage repair proteins that are recruited to the damage sites. […] MDA-MB-231-Luc cells were subjected to doxycycline-induced expression of PAR-T, and then treated UV radiation. […] In a similar manner, a time course of UV-mediated PARP-1 activation using live cell luminescence assay with the PAR-T NanoLuc sensor was performed. The MDA-MB-231 cells were subjected to Dox-induced expression of PAR-T NanoLuc or intact Nano luciferase and then exposed the cells to UV radiation.
Next, a set of assays was performed to compare the performance of the PAR-T sensors to conventional PAR detection reagents (WWE-Fc and PAR antibody) in a variety of assays. The following assays were compared (1) Western blotting with WWE-Fc versus fluorescence assay with PAR-T ddGFP, which were performed in conjunction with ARH3-mediated degradation of PAR in vitro (FIG. 11A); (2) Western blotting with WWE-Fc versus live-cell luciferase assay using PAR-T NanoLuc, which were performed in conjunction with UV-induced DNA damage in MDA-MB-231 cells (FIG. 11B); (3) enzyme-linked immunosorbent assay (ELISA) with PAR antibody versus fluorescence assay with PAR-T ddGFP, which were performed using immobilized PAR (FIG. 11C); and (4) immunofluorescence with WWE-Fc versus live-cell imaging using PAR-T ddGFP, which were performed using H2O2-mediated PARP-1 activation in 293T cells (FIG. 11D and FIG. 11E).

PARylation [1] = experiment: PAR-T luminescence in MDA-MB-231-luc xenograft tumors; type: in vivo; details: xenograft tumors in mice
Procedure: In the next experiment, the utility of luminescent PAR-T sensor to measure the levels of PARylation in vivo was tested. Xenograft tumors were established using the MDA-MB-231-luc cells the expression of PAR-T was induced by doxycycline (FIG. 5A). […] The luminescence from PAR-T was normalized to the firefly luminescence to confidently measure the differences in PARylation, while accounting for the variability in tumor sizes.

PAR accumulation = experiment: Time course of PAR-T NanoLuc bioluminescence of breast cancer cells injected into mice; type: in vivo, C57/BL6 mice; details: 24-hr time course post injection
Description: FIGS. 5D to 5E show analysis of a time course of bioluminescence imaging of 231-PAR-T NanoLuc cells transplanted into mice and treated with PARG inhibitor. Bioluminescence imaging (5D) with the region of interest expanded (5E). Each point in the graph in (5F) represents the mean±SEM of the relative levels of luminescence of NanoLuc of PAR-T NanoLuc (n=4).
PAR accumulation in breast cancer cells injected into C57/BL6 mice without establishing xenograft tumors over a 24-hr time course post injection, with or without PARG inhibitor treatment (FIG. 5D, FIG. 5E and FIG. 5F) was measured. PAR accumulation was readily detected in the breast cancer cells injected into the mice in the absence of treatment.

PARylation [2] = experiment: Recombinant PAR-T sensors incubated with lysates from treated Hela cells; type: cell-based
Procedure: as §1
Cells were cultured and treated as described above before the preparation of cell extracts. […]
Dimerization-dependent GFP is a genetically encoded sensor that was initially developed to study protein interactions. In this system, a pair of a quenched GFP (ddGFPA) and a non-fluorogenic GFP (ddGFPB) form a heterodimer that can result in improved fluorescence. In this example, a ddGFP-based fluorescence sensor (fluorescent PAR-Trackers or PAR-T) was designed to allow for live cell imaging, with high signal-noise ratio. To achieve this, the various ADPR reader domains (ARBDs) were fused to ddGFP-A/B and purified as recombinant proteins (FIG. 1A, FIG. 1B, FIG. 6A). […] Similarly, degradation of PAR chains by ARH3 was detected in a time (FIG. 1F and FIG. 1G) and dose (FIG. 6H) dependent way. […]

PARylation [3] = experiment: Live cell imaging of 3D cancer spheroids of MCF7 cells expressing PAR-T ddGFP; type: cell-based; details: for distribution of PARylation (PAR) throughout the spheroid: MCF7 3D cancer spheroids
Procedure: FIGS. 8C and 8D provides representative images (8C) and quantification (8D) of Z-projections of cancer spheroids formed using MCF-7 cells subjected to Dox-induced expression of the PAR-T ddGFP. The spheroids were treated with 20 µM Niraparib and live-cell imaging was performed at the indicated times. (Left) The spheroids were divided into ‘outer’ and ‘core’ sections for quantification as indicated by the white circles. (Right) Enlargement of the indicated areas from the left panels (yellow, core; pink, outer) as indicated.
Cancers are heterogenous tissues with spatial variation in nutrient availability, and stress. Since PARylation is enhanced by stressors such as DNA damage, another experiment tested whether there was any spatial variation in PARylation levels. Live cell imaging was performed in 3D cancer spheroids using MCF7 cells expressing the WWE based PAR-T sensors. […] A time course of Niraparib treatment in 3D cancer spheroids was performed to visualize spatio-temporal changes in PAR levels over time.

Compound	PAR-T luminescence (PARP-1 activation; UV radiation of treated cells)	time-dependent, UV-mediated increase in PAR-T NanoLuc signal (PARP-1 activation) (PARP-1 activation)	PARylation detected by PAR-T luminescence normalized to firefly luminescence (PARylation [1])	luminescence from PAR-T NanoLuc (PAR accumulation)	fluorescence of recombinant PAR-T sensors with cell lysates (PARylation [2]; lysates from cells treated with both H2O2 and PARG inhibitor)	fluorescence of recombinant PAR-T sensors with cell lysates (PARylation [2]; lysates from treated Hela cells)	distribution of PARylation (PAR) throughout the spheroid (PARylation [3]; WWE based PAR-T sensors, 20 uM Niraparib)	decrease in PAR-T NanoLuc signal (PARP-1 activation; UV-treated cells pre-treated with compound, versus basal)	decrease in PAR-T NanoLuc signal (PARP-1 activation; basal (-UV) conditions, 20 μM, 2 hr)	distribution of PARylation (PAR) throughout the spheroid (PARylation [3])	PAR levels in cells at the core versus outer layer of the spheroid (PARylation [3]; time course, 20 µM Niraparib)
PDD 00017273 [PARG inhibitor]	enhanced PAR-T luminescence	more spontaneous	increase in PARylation	increased significantly by 6 hr and then diminished by 24 hr	pronounced increase in fluorescence	increase in fluorescence	–	–	–	–	–
O=C(c1cc(Cc2n[nH]c(=O)c3ccccc23)ccc1F)N1CCN(C(=O)C2CC2)CC1 [olaparib, Olaparib]	–	–	–	–	–	–	inhibited	–	–	–	–
NC(=O)c1cccc2cn(-c3ccc([C@@H]4CCCNC4)cc3)nc12 [Niraparib]	–	but not in Niraparib-treated cells	–	–	–	–	–	greater	50%	inhibited	relatively resistant
